Data: patent US9884814B2, “Acylguanidines for treating osteoarthritis” (Merck Patent GmbH, priority 2013, dated 2018)

Test system: CAR-induced swelling, rat knee joint
Settings: intra-articular, 30 minutes before CAR, TAC 10 μg/joint
Protocol: In order to induce an inflammation reaction, a carrageenan solution (CAR, 1%, 50 μl) was injected intra-articularly on one side into a rat knee joint. The uninjected side was used for control purposes. Six animals per group were used.
The specific cathepsin D inhibitors according to the invention were administered out intra-articularly 30 minutes before the CAR.

## C[C@]12C=CC(=O)C=C1CC[C@H]1[C@@H]3C[C@@H](O)[C@](O)(C(=O)CO)[C@@]3(C)C[C@H](O)[C@@]12F [TAC, Triamcinolone]
  reduction of CAR-induced swelling: capable of reducing the CAR-induced swelling
